Measured values from publication PMC5874820 (Pharmaceutics, 2018).
Where two headings read alike, the source gives them in different places.

Legend:
[1] = test system: PANC-1 xenograft tumor; experiment: In vivo PANC-1 tumor growth xenograft model; parameters: species or system female athymic nude mice; conditions: for percentage of inhibition of tumor growth: Panc-1 xenograft in nude mice
Protocol: The PANC-1 cells derived from human pancreatic carcinoma of ductal cell origin were obtained from National Center for Cell Science, Pune, India. The cells were cultured in Dulbecco's modified medium (DMEM) supplemented with 10% v/v fetal bovine serum (FBS), 1% penicillin, and 1% streptomycin. Cultures (Figure S1, Supplementary Materials) were maintained at 37 °C in a humidified atmosphere with 5% CO2. Female athymic nude mice were obtained from the National Centre for Laboratory Animal Sciences (NCLAS), National Institute of Nutrition (ICMR), Hyderabad, India and were selected after careful initial screening for any external signs of disease or injuries. They were housed in individual cages in the conventional animal facilities of NCLAS, a registered facility with Committee for the Purpose of Control and Supervision of Experimentation on Animals (CPCSEA) (154/1999), Government of India. The environmental conditions were kept at 21 ± 2 °C, with 10-15 air changes per hour and relative humidity of 50-55 percent with 12 h light/dark cycle water. Animals were quarantined for 4 days and all the animals had free access to sterile formulated feed pellets and filtered potable clean water. PANC-1 cells (1 × 10^6) using matrigel were injected subcutaneously into the flanks of mice (Figure S2, Supplementary Materials). […] Each mouse was administered orally (p.o.) every day with either control vehicle (CMC), CUR (50 mg/kg), ART (50 mg/kg), CUR-ART (50 and 100 mg/kg) and Doxorubicin (2 mg/kg) by intravenous (i.v.) route. […] At the same time, the body weight of each animal was measured. At the end of the experiment (4 weeks after cell inoculation), the animals were euthanized by CO2 and sacrificed. Tumors from each animal were removed and measured. Each value represents mean ± SD (Standard Deviation). The control and experimental animal groups were compared by paired t-test. **** p < 0.0001 was considered significant.

[2] = Pharmacokinetic study, oral gavage, curcumin in plasma by HPLC; conditions: oral administration, SD rats
Protocol: Sprague-Dawley rats (200 ± 50 g) were obtained from Sainath Agencies Limited (Hyderabad, India). Animals were acclimatized for 1 week prior to experimentation in a temperature-controlled, 12/12 h light/dark room, and were allowed standard laboratory food and water. The rats were fasted overnight (~18 h) with free access to water before the experiment.
All compounds (200 mg/kg) were suspended in 1% sodium carboxymethylcellulose (CMC) separately and administered by oral gavage. Blood (0.4 mL) was withdrawn from retro-orbital plexus into lithium heparin tube at the following times after drug administration: 30, 45, 60, 90, 120, 180, 240, 360, 480 and 720 min. […]
Curcumin Plasma concentrations of CUR were analyzed by HPLC (Shimadzu, Mumbai, India). The area under the curve (AUC) for serum concentration versus time plots was calculated by linear trapezoidal rate. […]
The HPLC analyses were performed using a Shimadzu Prominence model LC-20AD equipped with 20 mL injection loop, and a photodiode array detector and CUR detected at 420 nm. […]
The standard curve was calculated by a linear relationship between concentration and area with regression factor R = 0.999. The Area under the curve (AUC) for serum concentration vs. Time plots was calculated by the linear trapezoidal rule. […]

[3] = parameters: method as in PMID 17999464, PMID 1529022; conditions: cited from earlier work
[4] = Supersaturation study in SGF and SIF (without enzyme), UV at 420 nm; assay type: physicochemical; conditions: 100 µg/mL CUR, 30 °C
Protocol: Supersaturation of CUR and CUR-ART were measured in SGF and SIF (without enzyme) medium at 30 °C. The supersaturated solution (CUR 100 µg/mL dissolved in 5 mL of SGF/SIF fluid) was stirred at 800 rpm using a magnetic stirrer at 30 °C. After regular intervals of time 2, 4, 6, 12 and 24 h the solution concentration of curcumin was determined at 420 nm maxima on a Thermo Scientific Evolution 300 UV-Vis spectrometer (Thermo Scientific, Waltham, MA, USA).

[5] = cited from earlier work
[6] = parameters: method as in doi:10.1039/C4RA11935E; conditions: curcumin (crystalline), oral dose of 200 mg/kg, male SD rats; cited from earlier work
[7] = pure curcumin, reference not given

Compound | percentage of inhibition of tumor growth ([1]; 50 mg/kg p.o. daily) [%] | percentage of inhibition of tumor growth ([1]; 2 mg/kg i.v. daily) [%] | effect on tumor size compared to other solids and controls ([1]; p < 0.0001, Panc-1 xenograft in nude mice) | detectable curcumin levels in the serum [2] | aqueous solubility [3] [µg/mL] | precipitation / residence time of solubilized CUR [4] | detection by HPLC at higher dosage levels ([5]; dosage >1 g/kg, ref recent reports) | half-life ([5]; pure curcumin in crystalline form, reference not given) [min] | half-life [5, 7] [min] | time in which it decomposes [5, 7] | plasma concentration by HPLC [6]
C[C@@H]1CC[C@H]2[C@@H](C)C(=O)O[C@@H]3O[C@@]4(C)CC[C@@H]1[C@]32OO4 [ART, Artemisinin] | 29.22 | – | – | – | – | – | – | – | – | – | –
COc1cccc2c1C(=O)c1c(O)c3c(c(O)c1C2=O)C[C@@](O)(C(=O)CO)C[C@@H]3O[C@H]1C[C@H](N)[C@H](O)[C@H](C)O1 [doxorubicin] | – | 69.97 | decreased tumor size significantly | – | – | – | – | – | – | – | –
Curcumin | 41.23 | – | – | did not show any detectable levels | 7.8 | precipitated faster than CUR-ART | could not be detected | 45 to 60 | < 60 | less than 1 h | no plasma concentration for curcumin (crystalline) could be detected
